Assay results reported in the NIST ThermoML archive (doi:10.1021/acs.jced.6b00268).
Numbers after ± are expanded uncertainties.

Key:
[1] = Molar enthalpy of transition or fusion; details: Crystal; DSC
[2] = Crystal; DTA

Molar enthalpy of transition or fusion [1]: 7.45 ± 0.167 kcal/mol
Normal melting temperature [2]: 80.47 ± 1.1 °C
SMILES: CC(C)OC(=O)C(C)(C)Oc1ccc(C(=O)c2ccc(Cl)cc2)cc1 [fenofibrate]
